# According to the supplement of paper PMC10331698:
# ± gives the standard deviation of the averaged measurements.
# Legend:
# Experiment in all cases: level (log10 ratio to DMSO vehicle control); higher = higher biomarker level / cell amount than vehicle control
# [1] = compound: O=S(=O)(O)C(F)(F)C(F)(F)OC(F)(F)C(F)(F)F [Perfluoro(2-ethoxyethane)sulfonic acid] (in DMSO)
# Method: (§1)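 BioMAP Diversity Plus panel of 12 human primary cell co-culture systems (3C, 4H, LPS, SAg, BT, BF4T, BE3C, CASM3C, HDF3CGF, KF3CT, MyoF, Mphg). Compounds were added 1 h before stimulation and left for 24 h (MyoF 48 h; BT 72 h for soluble read-outs or 6 d for IgG). Biomarkers were read by ELISA, cytotoxicity by SRB, PBMC viability and proliferation by Alamar Blue. Each well value was divided by the mean of 8 DMSO control wells on the same plate and log10 transformed; duplicate blinded samples were tested at 4 concentrations.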
# [2] = compound: C=C(C)C(=O)OCCC(F)(F)C(F)(F)C(F)(F)C(F)(F)C(F)(F)C(F)(F)C(F)(F)C(F)(F)F [8:2 Fluorotelomer methacrylate] (in DMSO)
# Method: as §1
# [3] = compound: CO[Si](C)(CCC(F)(F)C(F)(F)C(F)(F)C(F)(F)C(F)(F)C(F)(F)F)OC [Dimethoxymethyl((perfluorohexyl)ethyl)silane] (in DMSO)
# Method: as §1
# [4] = compound: O=S(=O)(O)CCC(F)(F)C(F)(F)C(F)(F)C(F)(F)C(F)(F)C(F)(F)C(F)(F)C(F)(F)F [8:2 Fluorotelomer sulfonic acid] (in DMSO)
# Method: as §1
# [5] = compound: OCC(F)(F)C(F)(F)C(F)(F)C(F)F [1H,1H,5H-Perfluoropentanol] (in DMSO)
# Method: as §1
# [6] = compound: O=C(O)C(F)(F)C(F)(F)C(F)(F)OC(F)(F)F [Perfluoro(4-methoxybutanoic) acid] (in DMSO)
# Method: as §1
# [7] = compound: CN(C(=O)C(F)(F)C(F)(F)C(F)(F)F)[Si](C)(C)C [N-Methyl-N-trimethylsilylheptafluorobutyramide] (in DMSO)
# Method: as §1
Test System,level (log10) ([1]; 6700 nM),level (log10) ([1]; 20000 nM),level (log10) ([1]; 60000 nM),level (log10) ([2]; 6700 nM),level (log10) ([2]; 20000 nM),level (log10) ([3]; 6700 nM),level (log10) ([3]; 20000 nM),level (log10) ([4]; 6700 nM),level (log10) ([4]; 20000 nM),level (log10) ([4]; 60000 nM),level (log10) ([5]; 6700 nM),level (log10) ([5]; 20000 nM),level (log10) ([5]; 60000 nM),level (log10) ([6]; 6700 nM),level (log10) ([6]; 20000 nM),level (log10) ([6]; 60000 nM),level (log10) ([7]; 6700 nM),level (log10) ([7]; 20000 nM),level (log10) ([7]; 60000 nM)
3C:CD87/uPAR,0.0105 ± 0.0064,0.0165 ± 0.0021,0.007 ± 0.0071,0.046 ± 0.018,0.049 ± 0.013,-0.002 ± 0.0071,-0.026 ± 0.021,0.0195 ± 0.016,-0.001 ± 0.058,-0.003 ± 0.03,-0.0135 ± 0.019,0.0015 ± 0.011,-0.0095 ± 0.013,-0.03 ± 0.058,-0.035 ± 0.051,-0.0265 ± 0.04,-0.0105 ± 0.0021,-0.0155 ± 0.0078,-0.007 ± 0.0042
3C:CXCL8/IL-8,0.0295 ± 0.028,0.0455 ± 0.074,0.095 ± 0.062,-0.005 ± 0.017,0.0305 ± 0.012,-0.007 ± 0.0014,0.011 ± 0.0057,-0.0005 ± 0.13,0.012 ± 0.057,0.079 ± 0.024,0.0115 ± 0.023,0.0035 ± 0.03,0.0545 ± 0.063,0.008 ± 0.014,0.001 ± 0.0099,0.022 ± 0.025,-0.016 ± 0.0071,-0.017 ± 0.0042,0.007 ± 0.017
3C:CXCL9/MIG,-0.0005 ± 0.0064,-0.0045 ± 0.0035,0.0075 ± 0.0021,-0.002 ± 0.0028,0.0055 ± 0.0035,-0.011 ± 0.0014,0.003 ± 0.0071,-0.004 ± 0.0014,0.004 ± 0.013,-0.0045 ± 0.0035,0 ± 0.0057,-0.0035 ± 0.0064,0.0105 ± 0.00071,-0.012 ± 0.013,-0.012 ± 0.017,-0.001 ± 0.013,-0.0045 ± 0.0035,-0.0005 ± 0.0035,0.0065 ± 0.0092
3C:HLA-DR,-0.005,-0.0045 ± 0.005,0.008 ± 0.0099,-0.0035 ± 0.035,0.0115 ± 0.028,0.013 ± 0.014,0.029 ± 0.013,-0.0155 ± 0.012,-0.011 ± 0.0071,-0.011 ± 0.0085,-0.02 ± 0.0028,-0.0075 ± 0.025,0.0385 ± 0.023,0.0105 ± 0.013,0.0055 ± 0.023,0.0015 ± 0.016,0.0015 ± 0.015,0.0045 ± 0.012,0.0285 ± 0.033
3C:Proliferation,-0.043 ± 0.025,-0.027 ± 0.034,-0.0325 ± 0.042,-0.0315 ± 0.005,-0.07 ± 0.034,0.003 ± 0.014,-0.0055 ± 0.03,0.004 ± 0.086,-0.0315 ± 0.083,-0.053 ± 0.018,-0.0045 ± 0.066,0.005 ± 0.0071,-0.033 ± 0.093,-0.057 ± 0.023,-0.0055 ± 0.046,-0.036 ± 0.03,-0.0305 ± 0.0092,0.003 ± 0.027,-0.005 ± 0.0057
3C:SRB,-0.022 ± 0.0042,-0.0025 ± 0.00071,-0.0275 ± 0.0021,-0.0205 ± 0.0035,-0.01 ± 0.021,-0.006 ± 0.0028,0.0085 ± 0.0035,-0.017 ± 0.0057,-0.019 ± 0.018,-0.0705 ± 0.028,-0.011,-0.006 ± 0.03,-0.015 ± 0.011,-0.0175 ± 0.018,-0.0255 ± 0.018,-0.0195 ± 0.0064,0.0135 ± 0.013,0.0035 ± 0.032,0.0075 ± 0.011
4H:CCL2/MCP-1,-0.019 ± 0.05,-0.008 ± 0.021,-0.0015 ± 0.016,-0.0075 ± 0.053,0.027 ± 0.034,-0.05 ± 0.033,0.011 ± 0.12,-0.001 ± 0.014,-0.033 ± 0.016,0.0125 ± 0.046,-0.0265 ± 0.046,-0.0115 ± 0.033,0.039 ± 0.055,-0.0235 ± 0.013,-0.026 ± 0.0028,0.0005 ± 0.061,-0.0405 ± 0.028,-0.0525 ± 0.039,0.0195 ± 0.11
4H:CCL26/Eotaxin-3,0.049 ± 0.027,0.0585 ± 0.0078,0.0405 ± 0.00071,0.0035 ± 0.037,0 ± 0.02,-0.0125 ± 0.023,0.011 ± 0.014,0.0095 ± 0.06,-0.0325 ± 0.015,-0.075 ± 0.0042,-0.008 ± 0.011,0.008 ± 0.0085,-0.005 ± 0.0071,0.018 ± 0.0085,0.0205 ± 0.013,0.0245 ± 0.023,-0.0005 ± 0.005,-0.001,-0.003 ± 0.024
4H:CD62P/P-selectin,-0.02 ± 0.014,0.0445 ± 0.005,-0.0105 ± 0.015,-0.02 ± 0.02,-0.0375 ± 0.0035,-0.0095 ± 0.033,-0.0135 ± 0.036,-0.0315 ± 0.09,-0.034 ± 0.099,-0.015 ± 0.071,-0.0245 ± 0.0021,0.0205 ± 0.061,0.027 ± 0.038,0.0035 ± 0.0078,0.033 ± 0.068,-0.005 ± 0.059,-0.0065 ± 0.067,-0.011 ± 0.052,0.002 ± 0.047
4H:CD87/uPAR,0.017 ± 0.062,0.0005 ± 0.049,0.0065 ± 0.059,-0.0325 ± 0.0035,-0.0345 ± 0.042,0.004 ± 0.028,0.0195 ± 0.013,0.026 ± 0.0028,-0.01 ± 0.023,-0.0345 ± 0.015,-0.0225 ± 0.0092,0.0025 ± 0.019,0.007 ± 0.034,0.0495 ± 0.039,0.035 ± 0.048,0.046 ± 0.04,0.011 ± 0.021,0.0135 ± 0.016,0.0055 ± 0.019
4H:CD106/VCAM-1,-0.0085 ± 0.00071,0.0075 ± 0.037,0.01 ± 0.033,-0.035 ± 0.018,-0.0485 ± 0.0064,0.003 ± 0.011,0.0265 ± 0.0035,-0.0065 ± 0.025,-0.018 ± 0.0014,-0.0375 ± 0.0021,-0.0075 ± 0.0035,0.0115 ± 0.0021,0.018 ± 0.021,-0.0105 ± 0.012,-0.0075 ± 0.005,-0.002 ± 0.018,-0.011,-0.0305 ± 0.049,-0.023 ± 0.065
4H:SRB,-0.015 ± 0.0057,-0.0035 ± 0.0021,-0.016 ± 0.023,-0.0205 ± 0.028,-0.0105 ± 0.042,-0.015 ± 0.013,0.0065 ± 0.00071,-0.012 ± 0.0014,-0.0135 ± 0.012,-0.018 ± 0.033,-0.003 ± 0.0014,0.011 ± 0.0042,0.0065 ± 0.005,-0.01 ± 0.0014,-0.018 ± 0.0099,-0.0155 ± 0.0021,0.005 ± 0.0085,0.0055 ± 0.022,-0.003 ± 0.011
4H:VEGFR2,0.009 ± 0.086,0.028 ± 0.057,0.0365 ± 0.12,0.028 ± 0.023,0.015 ± 0.05,-0.023,-0.001 ± 0.027,-0.0345 ± 0.12,0.003 ± 0.0014,-0.026 ± 0.0028,-0.021 ± 0.028,-0.0215 ± 0.0021,0.0395 ± 0.073,0.009 ± 0.033,0.019 ± 0.038,0.0075 ± 0.011,0.006 ± 0.0057,0.003 ± 0.0099,0.019 ± 0.042
BE3C:CD54/ICAM-1,0.001 ± 0.011,-0.0115 ± 0.0092,-0.022 ± 0.017,-0.012 ± 0.018,0.002 ± 0.061,0 ± 0.0085,0 ± 0.0042,0.0215 ± 0.018,0.013 ± 0.0042,-0.02 ± 0.014,0.0095 ± 0.042,0.02 ± 0.0014,0.0175 ± 0.028,-0.0015 ± 0.013,-0.007 ± 0.0085,-0.007 ± 0.017,-0.0005 ± 0.005,0.0045 ± 0.0064,0.001 ± 0.0028
BE3C:CD87/uPAR,-0.014 ± 0.035,0.012 ± 0.014,0.0075 ± 0.0021,-0.0135 ± 0.023,0.0015 ± 0.036,0.0225 ± 0.013,0.0075 ± 0.0078,0.0225 ± 0.0035,0.0135 ± 0.011,-0.01 ± 0.031,-0.012 ± 0.0085,-0.01 ± 0.0071,0 ± 0.027,0.0145 ± 0.011,-0.0195 ± 0.019,0.002 ± 0.0099,0.0055 ± 0.016,0.0275 ± 0.019,0.0275 ± 0.026
